Assay results taken from PMC9936538, “Structure–Activity Relationship of N-Ethyl-Hexedrone Analogues: Role of the α-Carbon Side-Chain Length in the Mechanism of Action, Cytotoxicity, and Behavioral Effects in Mice” (ACS Chemical Neuroscience, 2023).

What was measured:
hSERT [1] = target: T1, hSERT (Homo sapiens, UniProt P31645); assay: Monoamine uptake inhibition, [3H]5-HT uptake at hSERT in transfected HEK293 cells; type: cell-based
T1 construct: expressed in transfected cells; host or cells: HEK293
T1 sequence (P31645 whole entry): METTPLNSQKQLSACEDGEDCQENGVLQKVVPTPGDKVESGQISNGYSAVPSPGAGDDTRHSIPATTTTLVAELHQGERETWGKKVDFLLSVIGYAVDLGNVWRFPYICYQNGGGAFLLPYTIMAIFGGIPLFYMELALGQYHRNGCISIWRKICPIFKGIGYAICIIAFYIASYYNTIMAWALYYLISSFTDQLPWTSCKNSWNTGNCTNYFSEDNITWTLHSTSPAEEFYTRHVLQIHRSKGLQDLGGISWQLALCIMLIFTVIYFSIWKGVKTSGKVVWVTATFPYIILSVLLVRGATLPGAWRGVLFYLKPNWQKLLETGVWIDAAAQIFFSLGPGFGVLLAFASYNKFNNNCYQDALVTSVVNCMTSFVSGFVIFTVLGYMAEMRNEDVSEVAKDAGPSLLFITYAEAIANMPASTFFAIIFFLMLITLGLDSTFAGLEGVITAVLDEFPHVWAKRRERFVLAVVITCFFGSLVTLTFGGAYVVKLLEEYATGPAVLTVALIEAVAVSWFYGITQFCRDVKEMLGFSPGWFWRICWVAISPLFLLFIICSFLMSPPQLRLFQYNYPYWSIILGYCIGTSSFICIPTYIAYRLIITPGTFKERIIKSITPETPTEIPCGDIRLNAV
Experimental: (§1) Human embryonic kidney cells (HEK293) stably transfected with the human DAT and SERT were used for both the uptake inhibition and transporter binding assays.[6] Cells were cultured in DMEM supplemented with heat-inactivated 10% fetal bovine serum (FBS), […], and 100 U/mL penicillin at 37 °C in a 5% CO2 humidified atmosphere. Geneticin (G418; 50 μg/mL) was added to maintain the selection process. Upon approximately 80% confluence, cells were washed with 5 mL of phosphate-buffered saline (PBS) and 1 mL of trypsin/EDTA was added. After 3 min, 9 mL of DMEM was added to stop cell trypsinization. If necessary, centrifugation was performed to pellet the cells. Cells were then resuspended, counted, and seeded onto poly-D-lysine coated (24 h/prior to the experiment) 96-well plates at a density of 0.36 million cells per well for the uptake inhibition assays.
(§2) Assays were performed as previously described.[8] On the test day, the medium was removed from the cell culture 96-well plates and immediately replaced with 200 μL of Krebs-HEPES-buffer (KHB; 10 mM HEPES, 120 mM NaCl, 3 mM KCl, 2 mM CaCl2·2H2O, 2 mM MgCl2·6H2O supplemented with 20 mM D-glucose; pH 7.3). To ensure equilibrated conditions, cells were incubated with different concentrations of the drugs in KHB at a final volume of 50 μL/well for 5 min (preincubation). The preincubation solution was removed, and cells were incubated with the tritiated compounds, 0.02 μM [^3H]MPP^+ for hDAT and 0.1 μM [^3H]5-HT for hSERT, together with various concentrations of the test drugs in KHB. The uptake incubation times were 3 min for hDAT and 1 min for hSERT. The reaction was stopped by rapid removal of the incubation solution and washout with ice-cold KHB. Cells were lysed with 1% sodium dodecyl sulfate, and lysates were subsequently transferred to vials containing scintillation fluid. Radioactivity was quantified with a beta-scintillation counter (PerkinElmer, Waltham, MA, USA). The uptake in the absence of the test drugs was normalized to 100%, and the uptake in the presence of various concentrations of cathinones was expressed as a percentage thereof. […] Four independent experiments carried out on triplicates were performed.
(§3) For in vitro assays, data were normalized with 100% defined as the mean of the technical replicates in the control group and expressed as mean ± SEM. Nonlinear regression was used to fit the different competition curves. Data were plotted and best fitted to a sigmoidal dose–response curve from which an IC50 or LC50 value was obtained. Transporter ratios were calculated as (1/DAT IC50: 1/SERT IC50). […] The Cheng–Prusoff equation was used to calculate Ki (affinity): Ki = EC50/(1 + [radioligand concentration/Kd]).[65] The sample size for behavioral experiments was determined using GPower software. One-way or two-way ANOVA, and subsequent Tukey’s posthoc test, conducted only if F was significant, was used to determine the effects of cathinones on cytotoxicity, HLA, OF, and CPP experiments. The α error probability was set at 0.05 (p < 0.05). The exact size group for the behavioral experiments is shown in the corresponding figure legends. All statistic calculations were carried out using GraphPad Prism (GraphPad software, San Diego, CA, USA).

Swiss CD-1 mice = assay: Horizontal locomotor activity (HLA) in mice; type: in vivo; settings: for shape of the dose response of HLA: 3, 10, 30 mg/kg i.p., ceiling at highest dose 30 mg/kg; for HLA (total distance traveled in 60 min) vs saline / duration of the significant increase in locomotor activity: 3 mg/kg i.p.; for duration of the significant increase in locomotor activity: 5 min blocks
Experimental: Male Swiss CD-1 mice (Janvier, Le Genest, France) weighing 30–35 g (6–8 weeks old), housed in temperature-controlled conditions (22 ± 1 °C) under a 12 h light/dark cycle and with free access to food and drinking water (standard laboratory diet, Panlab SL, Barcelona, Spain), were randomly assigned to an experimental group. Efforts were made to minimize animal use and suffering.
In the habituation phase, which lasted for two consecutive days, mice received an intraperitoneal (i.p.) saline injection and were immediately placed into a black Plexiglass OF arena (25 × 25 × 40 cm) under low-light conditions and white noise for 30 min. On the test day, the HLA was measured as described.[8] […] HLA was video-monitored for 1 h and a specific tracking software (Smart 3.0 Panlab, Barcelona, Spain) was used to measure their total traveled distance (in cm). The doses were chosen according to the psychostimulant effect induced by structurally related synthetic cathinones published in previous studies by our research group.[8]

hDAT [2] = target: T2, hDAT (Homo sapiens, UniProt Q01959); assay: Monoamine uptake inhibition, [3H]MPP+ uptake at hDAT in transfected HEK293 cells; type: cell-based; settings: for hDAT/hSERT inhibition ratio: 1/DAT IC50:1/SERT IC50, calculated with the original raw data
T2 construct: expressed in transfected cells; host or cells: HEK293
T2 sequence (Q01959 whole entry): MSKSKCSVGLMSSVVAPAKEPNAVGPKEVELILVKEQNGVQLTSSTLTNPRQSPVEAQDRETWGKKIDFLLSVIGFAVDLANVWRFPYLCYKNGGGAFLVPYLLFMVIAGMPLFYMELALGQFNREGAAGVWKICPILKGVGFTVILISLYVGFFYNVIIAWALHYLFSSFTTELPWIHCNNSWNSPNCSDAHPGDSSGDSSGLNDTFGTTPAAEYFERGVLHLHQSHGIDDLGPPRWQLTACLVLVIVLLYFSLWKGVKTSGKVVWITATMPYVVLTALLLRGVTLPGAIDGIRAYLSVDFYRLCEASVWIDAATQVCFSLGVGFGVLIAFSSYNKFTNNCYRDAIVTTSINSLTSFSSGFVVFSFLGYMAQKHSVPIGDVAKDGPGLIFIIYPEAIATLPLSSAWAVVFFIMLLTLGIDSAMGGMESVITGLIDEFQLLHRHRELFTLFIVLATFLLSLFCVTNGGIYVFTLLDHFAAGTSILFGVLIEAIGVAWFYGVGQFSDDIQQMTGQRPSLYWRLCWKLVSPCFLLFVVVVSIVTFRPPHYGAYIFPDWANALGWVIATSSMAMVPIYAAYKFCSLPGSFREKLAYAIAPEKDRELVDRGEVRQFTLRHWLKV
Experimental: as §1, §2, §3

hDAT [3] = target: T2, hDAT; assay: Transporter binding, [3H]WIN 35,428 binding at hDAT (HEK293 membranes)
Experimental: (§4) For membrane preparation, cells were harvested from 80 to 90% confluent dishes. HEK293 cells were washed with ice-cold phosphate-buffered saline (PBS), mechanically detached from the dish using a plastic scraper, and pelleted by centrifugation (400g for 10 min at 4 °C). The pellet was resuspended in HME buffer (20 mM HEPES NaOH, 1 mM EDTA, 2 mM MgCl2; pH 7.4), subjected to two freeze–thaw cycles in liquid nitrogen and homogenized through sonication at 4 °C. Membranes were then collected by centrifugation (40,000g for 30 min at 4 °C) and resuspended in an appropriate volume of HME buffer. The different membrane preparations aliquots were kept at −80 °C. Protein concentration was determined using the Bio-Rad Protein Reagent (Bio-Rad Laboratories, Hercules, CA).
(§5) Binding assays were performed as described.[6] […] This nonspecific binding also allows subtracting from the total binding values of the binding to other components such as membrane lipids or microfiber filters. Incubation was performed for 1 h at 22 °C. Binding reactions are stopped by rapid filtration of the membranes through GF/C glass microfiber filters presoaked with 0.5% polyethyleneimine and rapid washing with ice-cold wash buffer (120 mM NaCl, 2 mM MgCl2, 10 mM Tris, and 100 μM ZnCl2 for hDAT, and […], 2 mM MgCl2, and 10 mM Tris, for hSERT). Thereafter, the filters are placed into vials, a scintillation cocktail is added and trapped radioactivity is quantified by liquid scintillation counting. Specific binding of each drug to the transporter was defined as the difference between total binding (binding buffer in absence of the drug) and nonspecific binding. For each cathinone, four independent experiments carried out on duplicates were performed.
as §3

hSERT [4] = target: T1, hSERT; assay: Transporter binding, [3H]imipramine binding at hSERT (HEK293 membranes)
Experimental: as §4, §5, §3

Row | SMILES | IC50 (hSERT [1]) [nM] | shape of the dose response of HLA (Swiss CD-1 mice) | IC50 (hDAT [2]) [nM] | hDAT/hSERT inhibition ratio (hDAT [2]) | reduction of potency inhibiting DA uptake compared with α-PVP (hDAT [2]; vs α-PVP) [fold] | Ki (hDAT [3]) [nM] | Ki (hSERT [4]) [nM] | potency in inhibiting DA uptake compared with NEC (hDAT [2]; vs NEC) [fold] | time at which the locomotor effect ended (Swiss CD-1 mice; 10 mg/kg i.p., 60 min session) [min] | HLA (total distance traveled in 60 min) vs saline (Swiss CD-1 mice) | duration of the significant increase in locomotor activity (Swiss CD-1 mice) [min]
1 | CCNC(C)C(=O)c1ccccc1 (stereo not shown) [NEC, N-ethyl-cathinone] | > 100000 | dose–response relationship | 1440 | 157 | ~10 | 2330 | > 100000 |  |  |  | 
2 | CCCCC(NCC)C(=O)c1ccccc1 (stereo not shown) [NEH, N-ethyl-hexedrone] | > 100000 | dose–response relationship | 73 | 1457 |  | 121 | 35900 | ~20 |  |  | 
3 | CCCCCC(NCC)C(=O)c1ccccc1 (stereo not shown) [NEHP, N-ethyl-heptedrone] | > 100000 | dose–response relationship | 251 | 426 |  | 107 | 40600 |  | < 60 |  | 
4 | CCCC(NCC)C(=O)c1ccccc1 (stereo not shown) [NEPD, N-ethyl-pentedrone] | 76400 | ceiling effect | 91 | 844 |  | 42 | 24600 |  |  | significant effect | 40
5 | CCNC(CC)C(=O)c1ccccc1 (stereo not shown) [NEB, N-ethyl-buphedrone] | 51200 | ceiling effect | 305 | 168 |  | 198 | 90100 |  |  | significant effect | 15
